Experimental data as given in patent US11077100B2, “Tetrahydroquinoline derivatives as P2X7 receptor antagonists” (RaQualia Pharma Inc., priority 2017, dated 2021).

Key:
human P2X7 = human P2X7 (Homo sapiens (Human), UniProt Q99572); assay: Human P2X7 functional assay (Ca2+ influx, Fluo-4, FDSS); assay type: cell-based; settings: antagonistic activity with respect to the human P2X7 receptor; BzATP final concentration 80 microM
How it was run: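 Ca2+ influx was triggered with BzATP (80 μM final) after a 10-min room-temperature compound preincubation and monitored with Fluo-4 (ex 480/em 540 nm) on FDSS. The cells were HEK293 stably carrying FLAG-tagged human P2X7. Duplicate-averaged 7-point dose-responses gave IC50s.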

rat P2X7 = rat P2X7 (Rattus norvegicus (Rat), UniProt Q64663); assay: Rat P2X7 functional assay (Ca2+ influx, Fluo-4, FDSS); assay type: cell-based; settings: HEK293 cells stably expressing rat P2X7; BzATP final 10 microM; 7-point dose-response; read-out: Antagonistic activities with respect to the rat P2X7 receptor (IC50)
Sequence of rat P2X7 (Q64663 whole entry): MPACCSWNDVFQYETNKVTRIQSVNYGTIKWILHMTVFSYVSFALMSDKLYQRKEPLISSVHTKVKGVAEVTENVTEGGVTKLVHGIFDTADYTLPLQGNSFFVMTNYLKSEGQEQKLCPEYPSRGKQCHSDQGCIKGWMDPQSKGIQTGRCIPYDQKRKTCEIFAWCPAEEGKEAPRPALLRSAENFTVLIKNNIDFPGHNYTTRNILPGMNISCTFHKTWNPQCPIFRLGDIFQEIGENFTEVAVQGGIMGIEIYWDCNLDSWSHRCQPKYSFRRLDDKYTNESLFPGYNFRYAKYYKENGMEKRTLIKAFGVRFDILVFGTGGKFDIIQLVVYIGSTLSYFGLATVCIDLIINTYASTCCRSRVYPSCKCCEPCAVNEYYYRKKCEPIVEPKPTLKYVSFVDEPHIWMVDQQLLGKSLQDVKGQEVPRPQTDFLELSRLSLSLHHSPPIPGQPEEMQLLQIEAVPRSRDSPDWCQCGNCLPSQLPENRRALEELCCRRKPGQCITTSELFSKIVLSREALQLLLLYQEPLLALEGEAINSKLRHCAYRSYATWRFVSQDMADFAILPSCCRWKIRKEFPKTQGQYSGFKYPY
How it was run: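 IC50 derived from 7-point dose-response in duplicate, measuring inhibition of BzATP-evoked (final 10 microM) intracellular Ca2+ increase by Fluo-4 fluorescence on FDSS. Rat P2X7-HEK293 cells were exposed to compound for 10 min in the dark beforehand.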

Sequence of human P2X7 (Q99572 whole entry): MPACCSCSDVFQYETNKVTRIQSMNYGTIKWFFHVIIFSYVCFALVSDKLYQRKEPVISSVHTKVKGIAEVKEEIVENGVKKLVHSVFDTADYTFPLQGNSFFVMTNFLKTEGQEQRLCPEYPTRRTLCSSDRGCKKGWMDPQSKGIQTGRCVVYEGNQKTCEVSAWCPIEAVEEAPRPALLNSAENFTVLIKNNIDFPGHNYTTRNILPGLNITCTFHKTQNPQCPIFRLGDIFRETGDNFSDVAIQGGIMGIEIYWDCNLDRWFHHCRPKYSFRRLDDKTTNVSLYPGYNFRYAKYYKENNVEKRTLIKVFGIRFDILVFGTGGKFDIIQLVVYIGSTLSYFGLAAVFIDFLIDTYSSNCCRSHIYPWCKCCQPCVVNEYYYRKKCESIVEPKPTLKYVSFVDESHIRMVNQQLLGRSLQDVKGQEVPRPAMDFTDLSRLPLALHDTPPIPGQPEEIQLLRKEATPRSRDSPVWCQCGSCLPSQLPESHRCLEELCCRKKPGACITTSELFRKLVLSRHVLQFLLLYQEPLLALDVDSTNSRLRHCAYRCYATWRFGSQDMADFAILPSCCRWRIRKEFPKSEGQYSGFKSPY

Structure (SMILES)	IC50 (human P2X7) [nM]	IC50 (rat P2X7) [nM]
Cc1cccc(Cl)c1CNC(=O)[C@]1(F)CC[C@@H](O)c2ncccc21 [Example 122, (5S,8R)-N-(2-chloro-6-methylbenzyl)-5-fluoro-8-hydroxy-5,6,7,8,- tetrahydroquinoline-5-carboxamide]	50 to 100	< 1000
O=C(NCc1ncc(Cl)cc1Cl)[C@]1(F)CC[C@@](O)(CO)c2ncccc21 [Example 329, (5S,8S)-N-((3,5-dichloropyridin-2-yl)methyl)-5-fluoro-8-hydroxy-8-(hydroxymethyl)-5,8,7,8-tetrahydroquinoline-5-carboxamide]	50 to 100	< 1000
CN(C)CC1(O)CCC(F)(C(=O)NCc2cccc(C(F)(F)F)c2Cl)c2cccnc21 (stereo not drawn) [Example 50, N-(2-chloro-3-(trifluoro-methyl)benzyl)-8-((di-methylamino)methyl)-5-fluoro-8-hydroxy-5,6,7,8-tetrahydroquinoline-5-carboxamide]	< 50	< 1000
Cc1cc(Cl)cc(Cl)c1CNC(=O)C1(F)CCC(O)(CN(C)C)c2ncccc21 (stereo not drawn) [Example 47, N-(2,4-dichloro-6-meth-ylbenzyl)-8-((dimeth-ylamino)meth-yl)-5-fluoro-8-hydroxy-5,6,7,8-tetrahydroquinoline-5-carboxamide]	< 50	< 1000
O=C(NCc1c(Cl)cc(Cl)cc1CO)[C@]1(F)CC[C@H](OCCO)c2ncccc21 [Example 343, (5S,8S)-N-(2,4-dichloro-6-(hydroxymethyl)benzyl)-5-fluoro-8-(2-hydroxyethoxy)-5,6,7,8-tetrahydroquinoline-5-carboxamide]	< 50	< 1000
C[C@@H](NC(=O)[C@]1(F)CC[C@](O)(CO)c2ncccc21)c1ccc(F)cc1Cl [Example 328, (5S,8R)-N-((R)-1-(2-chloro-4-fluorophenyl)ethyl)-5-fluoro-8-hydroxy-8-(hydroxymethyl)-5,6,7,8-tetrahydroquinoline-5-carboxamide]	101 to 300	< 1000
Cc1cc(Cl)cc(Cl)c1CNC(=O)C1(F)CCC(O)(CN)c2ncccc21 (stereo not drawn) [Example 45, 8-(aminomethyl)-N-(2,4-dichloro-6-methylbenzyl)-5-fluoro-8-hydroxy-5,6,7,8-tetrahydro-quinoline-5-carboxamide]	< 50	< 1000
O=C1CO[C@]2(CC[C@@](F)(C(=O)NCc3ccc(Cl)cc3Cl)c3cccnc32)CN1 [Example 295, (2R,5′S)-N-(2,4-dichlorobenzyl)-5′-fluoro-5-oxo-6′,7′-dihydro-5′H-spiro [morpholine-2,8′-quinoline]-5′-carboxamide]	< 50	< 1000
O=C(NCc1c(Cl)cc(Cl)cc1CO)[C@@]1(F)CC[C@@H](O)c2ncccc21 [Example 130, (5R,8R)-N-(2,4-dichloro-6-(hydroxymethyl)benzyl)-5-fluoro-8-hydroxy-5,6,7,8-tetrahydroquinoline-5-carboxamide]	< 50	< 1000
C[C@]1(O)CC[C@@](F)(C(=O)NCc2c(Cl)cc(Cl)cc2CO)c2cccnc21 [Example 261, (5S,8S)-N-(2,4-dichloro-6-(hydroxymethyl)benzyl)-5-fluoro-8-hydroxy-8-methyl-5,6,7,8-tetrahydroquinoline-5-carboxamide]	< 50	< 1000
Cc1cc(Cl)cc(Cl)c1CNC(=O)C1(O)CCC(O)c2ncccc21 (stereo not drawn) [Example 24, N-(2,4-dichloro-6-methyl-benzyl)-5,8-dihydroxy-5,6,7,8-tetrahydroquinoline-5-carboxamide]	< 50	< 1000
O=C1CC[C@@](F)(C(=O)NCc2cccc(Cl)c2Cl)c2cccnc21 [Example 252, (S)-N-(2,3-dichloro-benzyl)-5-fluoro-8-oxo-5,6,7,8-tetrahydroquinoline-5-carboxamide]	< 50	< 1000
Cc1cc(Cl)cc(Cl)c1CNC(=O)C1CCC(O)(CO)c2ncccc21 (stereo not drawn) [Example 33, N-(2,4-dichloro-6-methylbenzyl)-8-hy-droxy-8-(hydroxymethyl)-5,6,7,8-tetra-hydroxuqinoline-5-carboxamide]	< 50	< 1000
O=C(NC1COc2ccccc2C1)[C@]1(F)CC[C@H](O)c2ncccc21 (stereo partly drawn) [Example 233, (5S,8S)-N-(chroman-3-yl)-5-fluoro-8-hydroxy-5,6,7,8-tetrahydroquinoline-5-carboxamide]	101 to 300	< 1000
O=C(NCc1ccc(F)cc1Cl)[C@]1(F)CC[C@@](O)(CNCCO)c2ncccc21 (relative stereo) [Example 56, (5S*,8R*)-N-(2-chloro-4-fluorobenzyl)-5-fluoro-8-hydroxy-8-(((2-hydroxy-ethyl)amino)methyl)-5,6,7,8-tetrahydro-quinoline-5-carboxamide]	< 50	< 1000
C[C@@H](NC(=O)[C@]1(F)CC[C@H](O)c2ncccc21)c1ccc(F)cc1Cl [Example 237, (5S,8S)-N-((R)-1-(2-chloro-4-fluorophenyl)ethyl)-5-fluoro-8-hydroxy-5,6,7,8-tetrahydroquinoline-5-carboxamide]	< 50	< 1000
O=C1NC[C@@]2(CC[C@@](F)(C(=O)NCc3ccc(Cl)cc3Cl)c3cccnc32)O1 [Example 292, (5R,5′S)-N-(2,4-dichlorobenzyl)-5′-fluoro-2-oxo-6′,7′-dihydro-5′H-spiro [oxazolidine-5,8′-quinoline]-5′-carboxamide]	50 to 100	< 1000
O=C(NCc1ccc(Cl)cc1F)[C@@H]1CC[C@H](O)c2ncccc21 [Example 78, (5R,8S)-N-(4-chloro-2-fluorobenzyl)-8-hydroxy-5,6,7,8-tetrahydroquinoline-5-carboxamide]	< 50	< 1000
O=C(NCc1ccc(Cl)cc1Cl)[C@]1(F)CC[C@@](O)(CS(=O)(=O)CCO)c2ncccc21 [Example 300, (5S,8S)-N-(2,4-dichlorobenzyl)-5-fluoro-8-hydroxy-8-(((2-hydroxyethyl)sulfonyl)methyl)-5,6,7,8-tetrahydroquinoline-5-carboxamide]	< 50	< 1000
O=C(NCc1ccc(Cl)cc1F)[C@]1(F)CC[C@H](OCCO)c2ncccc21 [Example 346, (5S,8S)-N-(4-chloro-2-fluorobenzyl)-5-fluoro-8-(2-hydroxyethoxy)-5,6,7,8-tetrahydroquinoline-5-carboxamide]	< 50	< 1000
O=C(NCc1ccc(Cl)cc1Cl)[C@]1(F)CC[C@H](O)c2c1ccc[n+]2[O-] [Example 245, (5S,8S)-5-((2,4-dichlorobenzyl)carbamoyl)-5-fluoro-8-hydroxy-5,6,7,8-tetrahydroquinoline 1-oxide]	< 50	< 1000
C[C@]1(O)CC[C@@](F)(C(=O)NCc2ccc(Cl)cc2F)c2cccnc21 [Example 264, (5S,8S)-N-(4-chloro-2-fluorobenzyl)-5-fluoro-8-hydroxy-8-methyl-5,6,7,8-tetrahydroquinoline-5-carboxamide]	< 50	< 1000
O=C(NCc1c(F)ccc(Cl)c1F)[C@]1(F)CC[C@H](O)c2ncccc21 [Example 193, (5S,8S)-N-(3-chloro-2,6-difluorobenzyl)-5-fluoro-8-hydroxy-5,6,7,8-tetrahydroquinoline-5-carboxamide]	< 50	< 1000
CNCC1(O)CCC(C(=O)NCc2c(C)cc(Cl)cc2Cl)c2cccnc21 (stereo not drawn) [Example 44, N-(2,4-dichloro-6-methylbenzyl)-8-hydroxy-8-((methyl-amino)methyl)-5,6,7,8-tetrahydro-quinoline-5-carboxamide]	< 50	< 1000
O=C(NCc1ccc(F)cc1F)[C@@H]1CC[C@H](O)c2ncccc21 [Example 74, (5R,8S)-N-(2,4-difluoro-benzyl)-8-hydroxy-5,6,7,8-tetrahydroquinoline-5-carboxamide]	101 to 300	< 1000
O=C(NCc1cccc(Cl)c1Cl)[C@]1(F)CC[C@@H](O)c2ncccc21 (stereo in doubt) [Example 121, (5S,8RS)-N-(2,3-dichlorobenzyl)-5-fluoro-8-hydroxy-5,6,7,8-tetrahydroquinoline-5-carboxamide]	50 to 100	< 1000
O=C(NCc1cccc(Cl)c1Cl)[C@]1(F)CC[C@H](O)c2ncccc21 [Example 159, (5S,8S)-N-(2,3-dichlorobenzyl)-5-fluoro-8-hydroxy-5,6,7,8-tetrahydroquinoline-5-carboxamide]	< 50	< 1000
O=C(NCc1cc(F)cc(F)c1)[C@]1(F)CC[C@H](O)c2ncccc21 [Example 221, (5S,8S)-N-(3,5-difluorobenzyl)-5-fluoro-8-hydroxy-5,6,7,8-tetrahydroquinoline-5-carboxamide]	301 to 1000	< 1000
N#CC[C@]1(O)CC[C@@](F)(C(=O)NCc2c(Cl)cc(F)cc2CO)c2cccnc21 [Example 284, (5S,8R)-N-(2-chloro-4-fluoro-6-(hydroxymethyl)benzyl)-8-(cyanomethyl)-5-fluoro-8-hydroxy-5,6,7,8-tetrahydroquinoline-5-carboxamide]	< 50	< 1000
O=C(NC1CC1c1ccc(Cl)cc1Cl)[C@]1(F)CC[C@H](O)c2ncccc21 (stereo partly drawn) [Example 238, (5S,8S)-N-((trans)-2-(2,4-dichlorophenyl)cyclopropyl)-5-fluoro-8-hydroxy-5,6,7,8-tetrahydroquinoline-5-carboxamide]	< 50	< 1000
